# According to patent US20230027620A1, “PENTAPEPTIDE AND METHODS OF USE THEREOF” (THE BOARD OF TRUSTEES OF THE UNIVERSITY OF ILLINOIS, priority 2019, published 2023):
# Entries after “also recorded” stand apart in the source; their conditions may differ. Starred links: 1 amine or outer side, 2 acyl side, 3 side chain; linkers in the order of their positions; H or OH if unused. Non-standard residues stand in square brackets, D forms with d. No end group written: not given here. (CH2)6 = -(CH2)6- hydrocarbon linking residues between repeats, C(CCC[*:2])CC[*:1]
# Test system: p-ERK1/2
# Experiment: Immunofluorescence imaging of p-ERK1/2 in scratched HCE monolayer
# Type: cell-based, Human
# Details: 80 μM, 45 minutes
# Procedure: Immunofluorescence Imaging. HCE cells were seeded in 8-well chamber slide at 9×10^4 (cells/well) seeding density, and allowed to incubate to form a confluent monolayer. Subsequently, a straight-line scratch mark was made with a sterile P10 pipette tip. The cells were then washed with media to remove cellular debris. Wounded areas were subsequently left untreated or treated with Hst5, SP1 or SP2 at 80 μM concentrations in MEM media with 0.5% FBS for 45 minutes. Cells were then fixed with 4% paraformaldehyde for 30 minutes and permeabilized with 0.1% Triton X-100 for 5 minutes. After washing with PBS, cells were incubated at room temperature for 30 minutes with 5% bovine serum albumin (BSA) and 5% normal goat serum in PBS. Cells were subsequently incubated with primary antibodies diluted in 1% BSA against p-ERK1/2 (1:200) (Cell Signaling, Danver, Mass.) at 4° C. for 16 hours. After three washings with PBS, cells were incubated with fluorescein isothiocyanate-conjugated sheep anti-rabbit IgG antibody (BD Biosciences, San Jose, Calif.) (1:500) diluted in 1% BSA at room temperature for 60 minutes. After extensive washing with PBS, the cells were then stained with 4′,6-diamidino-2-phenylindole (DAPI; (Roche, Mannheim, GE) for 2 minutes for nuclear staining. The cells were mounted in Fluoro gel with Tris buffer (Electron Microscopy Sciences, Hattfield, Pa.) and observed under a confocal microscope (Zeiss LSM 710 Confocal Microscope, Oberkochen, Germany) using a 10× objective.
# The level of activation/phosphorylation of ERK with and without wounding and with and without Hst5 application were investigated to determine whether the cellular signaling pathways underpinning the pro-migratory effects of Hst5 were similar to those of Hst1 in other epithelial cell types. Wounding causes an increased in phosphorylated form of ERK1/2 (p-ERK1/2). Immunolocalization was used to determine whether Hst5 application to a scratched sheet of epithelium would affect pERK1/2 levels.
row,Compound,pERK1/2 immunolocalization / signal intensity
1,YHGHRHFRKHKKHKEAHSYDRGSH [SP1],did not elicit the same increase in pERK1/2 immunolocalization
2,HSHKEGHHYKRFKRKHHADSHRGY [SP2],increased pERK1/2 levels to a comparable intensity to Hst5; also recorded: elevated immunolocalization of pERK1/2

# Test system: corneal epithelial wound in C57BLl6J mice
# Experiment: Murine corneal epithelial injury (wound healing) model
# Type: in vivo
# Details: applied topically to mice injured using a standardized wounding method; summary statement
# Procedure: Wounded areas were treated with Hst5, SHRGY (SEQ ID NO:2) or SP1 peptides (n=7 for each group), each tested at 80 μM concentration. Wound areas at multiple time points were measured using Image J software. […] Statistical significance was determined by a two-way ANOVA with Bonferroni post-hoc test. **P<0.01, ***P<0.001. % Wound area=(Wound area at time X/Wound area at time 0)×100.
# Wound Healing Assay. Corneal wounding experiments in mice were conducted in compliance with the Association for Research in Vision and Ophthalmology (ARVO) Statement for the Use of Animals in Ophthalmic and Vision Research. The protocol was approved by the Animal Care & Use Committee of the University of Illinois at Chicago. Twelve-to-nineteen week old C57BLl6J (Jackson Laboratory, Bar Harbor, Me.) mice were anesthetized with intraperitoneal injection of ketamine (100 mg/kg) and xylazine (5 mg/kg). After applying two drops of topical 0.5% proparacaine, a 2.0-mm area of the central epithelium was demarcated using 2-mm disposable biopsy punch and removed by an AlgerBrush II (The Alger Company, Lago Vista, Tex.). In the treatment (n=7) or the control (n=7) group, Histatin=5 (80 μM), SHRGY peptide (SEQ ID NO:2; 80 μM), or SP1 (80 μM) was applied to the cornea three times a day. At 0, 18 and 24 hours, the corneas were stained with fluorescein (FUL-GLO® Fluorescein Sodium ophthalmic strips, Akorn, Lake forest, Ill.) and photographed using a NIKON FS-2 photo-slit lamp with a NIKON D200 camera (Melville, N.Y.). Wound sizes were compared with the baseline for each mouse and the percentages of wound closure was measured using Image J software.
# For immunofluorescence, excised whole mouse eye was snap frozen in optimal cutting temperature compound (OCT; (Fisher Healthcare, Galderma, Calif.). The frozen tissues were cut into 10 μm cryosections (ThermoScientific NX50 Cryomicrotome, Waltham, Mass.) and subsequently were mounted on Superfrost plus slides (Thermofisher, Waltham, Mass.). Slides were fixed for 20 minutes in methanol, washed several times with PBS, stained with DAPI for 2 minutes, and further washed with PBS and deionized water. The slides were then mounted in Fluoro gel with Tris buffer (Electron Microscopy Sciences, Hattfield, Pa.) and observed under a confocal microscope (Zeiss LSM 710 Confocal Microscope, Oberkochen, Germany) using a 10× objective.
# Thus, Hst5 and SHRGY (SEQ ID NO:2)-containing peptides can enhance wound healing in a well-vetted model of murine corneal epithelial injury.
row,Compound,corneal healing
1,SHRGY-(CH2)6-SHRGY-(CH2)6-SHRGY-(CH2)6-SHRGY (SHRGY[(CH2)6]SHRGY[(CH2)6]SHRGY[(CH2)6]SHRGY) [multimer of SHRGY composed of 4 repeating units],significantly improve corneal healing

# Test system: epithelial cell migration
# Experiment: In vitro scratch assay, truncation and scrambled peptide series (FIG. 1; cell line not given)
# Type: cell-based
# Details: 80 μM; FIG. 1; vs untreated control
# Procedure: Peptides were tested for efficacy in accelerating scratch closure rates. Negative controls included untreated and multiple scrambled peptide (SP) controls. All peptides were tested at 80 μM concentration. All experiments were performed in triplicate with three technical replicates for each experiment. Statistical significance was determined by one-way ANOYA with Dunnett's post-hoc test. *p<0.05; **p<0.01; ***p<0.001. Relative closure=(% closure of treated sample)/(% closure of Untreated control).
# In Vitro Scratch Assay. HCE, HCLE, HELA and MCF-7 cells were cultured in a 24-well plate at 2.5×10^5 (cells/well) seeding density, and were grown to confluence on a 24-well plate. Subsequently, a straight-line scratch mark was made with a sterile P200 pipette tip. The cells were then washed twice with phosphate-buffered saline (PBS) to remove cellular debris. Wounded areas were then treated with the peptides provided in Table 5 at various concentrations in standard medium with reduced serum conditions (0.5% FBS in MEM medium (HCE), growth factor-free K-SFM media (HCLE), 1% FBS in DMEM medium (HeLa) and 0.5% FBS in RPMI 1640 medium (MCF-7)). Scratches were photographed microscopically at 4× magnification (Image Express Micro, Molecular Devices, San Jose, Calif.) every hour over the course of the experiment. The wound area at each time-point was measured using Image J software (Image J 1.47v, NIH, Thornwood, Bethesda, Md.). Relative wound closure was calculated by dividing the closure of the treated wound by that of the untreated wound. For all the experiments including truncated histatin-5, a final concentration of 80 μM was used. PD98059 (Calbiochem, San Diego, Calif.) at final concentration of 50 μM was used as a specific inhibitor of MEK. PD98059 was added to cell cultures at the same time as histatin peptides.
# To identify the residues of Hst5 required for epithelial cell migration, serial truncation experiments were performed, progressively deleting residues in Hst5. […] All peptides were tested at 80 μM. […] Thus, the SHRGY (SEQ ID NO:2) sequence is necessary and sufficient to promote epithelial migration rates in in vitro scratch assays.
row,Compound,"scratch (wound) closure rates, relative closure"
1,DSHAKRHHGYKRKF [Hst5(1-14)],no significant increase in wound closure rates
2,DSHAKRHIHGYKRKFHEKHHSH (DSHAKRHHGYKRKFHEKHHSH) [Hst5(1-21)],no significant increase in wound closure rates
3,HSHKEGHHYKRFKRKHHADSHRGY [SP2],significant increases in scratch closure rates
4,DSHAKRHHGYKRKFHEKHH [Hst5(1-19)],no significant increase in wound closure rates
5,RHHGYKRKFHEKHHSHRGY [Hst5(5-24)],significant increases in scratch closure rates
6,DSHAKRHHGYKRKFHEKHHSHRG [Hst5(1-23)],no significant increase in wound closure rates
7,DSHAKRHHGYKRKFHEKHHSHR [Hst5(1-22)],no significant increase in wound closure rates
8,RYSGH [SP3],did not significantly increase wound closure rates
9,RYHGS [SP4],did not significantly increase wound closure rates
10,"c-SHRGY: cyclized SHRGY peptide, prepared using a linker/spacer composed of 6-(Fmoc-amino)caproic acid, 6-(Fmoc-amino)hexanoic acid (cyclo(SHRGY); not fully specified (C-terminus))",significant increases in scratch closure rates
11,TNQQK [SP5],no significant improvement in the wound closure rates
12,SHRGY-(CH2)6-SHRGY-(CH2)6-SHRGY-(CH2)6-SHRGY (SHRGY[(CH2)6]SHRGY[(CH2)6]SHRGY[(CH2)6]SHRGY) [multimer of SHRGY composed of 4 repeating units],significant increases in scratch closure rates

# Same assay, conditions: PD98059 50 μM added at the same time as Hst5
row,Compound,effect of MEK inhibitor co-treatment on Hst5-promoted wound closure
1,COc1cccc(-c2cc(=O)c3ccccc3o2)c1N [PD98059],eliminated the effects of Hst5 on promoting wound closure

# Same assay, conditions: summary statement: immortalized human corneal epithelial cells, immortalized human corneal limbal epithelial cells, HeLa human cells, mouse corneal wounding models
row,Compound,epithelial migration
1,SHDGY [pentapeptide],significantly enhance epithelial migration
